The source made the active and inactive calls.
Columns and labels:
[1] = biological target: T1, Apoptotic protease-activating factor 1 (Homo sapiens, UniProt O14727); assay: SAR analysis of small molecule Activators of Apaf-1 in a Fluorescent assay.; format: functional; conditions: read-out: EC50_Mean;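 note: caspase-3 cleavage of fluorogenic Rh110 DEVD substrate downstream of apoptosome activation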
T1 sequence (O14727 whole entry): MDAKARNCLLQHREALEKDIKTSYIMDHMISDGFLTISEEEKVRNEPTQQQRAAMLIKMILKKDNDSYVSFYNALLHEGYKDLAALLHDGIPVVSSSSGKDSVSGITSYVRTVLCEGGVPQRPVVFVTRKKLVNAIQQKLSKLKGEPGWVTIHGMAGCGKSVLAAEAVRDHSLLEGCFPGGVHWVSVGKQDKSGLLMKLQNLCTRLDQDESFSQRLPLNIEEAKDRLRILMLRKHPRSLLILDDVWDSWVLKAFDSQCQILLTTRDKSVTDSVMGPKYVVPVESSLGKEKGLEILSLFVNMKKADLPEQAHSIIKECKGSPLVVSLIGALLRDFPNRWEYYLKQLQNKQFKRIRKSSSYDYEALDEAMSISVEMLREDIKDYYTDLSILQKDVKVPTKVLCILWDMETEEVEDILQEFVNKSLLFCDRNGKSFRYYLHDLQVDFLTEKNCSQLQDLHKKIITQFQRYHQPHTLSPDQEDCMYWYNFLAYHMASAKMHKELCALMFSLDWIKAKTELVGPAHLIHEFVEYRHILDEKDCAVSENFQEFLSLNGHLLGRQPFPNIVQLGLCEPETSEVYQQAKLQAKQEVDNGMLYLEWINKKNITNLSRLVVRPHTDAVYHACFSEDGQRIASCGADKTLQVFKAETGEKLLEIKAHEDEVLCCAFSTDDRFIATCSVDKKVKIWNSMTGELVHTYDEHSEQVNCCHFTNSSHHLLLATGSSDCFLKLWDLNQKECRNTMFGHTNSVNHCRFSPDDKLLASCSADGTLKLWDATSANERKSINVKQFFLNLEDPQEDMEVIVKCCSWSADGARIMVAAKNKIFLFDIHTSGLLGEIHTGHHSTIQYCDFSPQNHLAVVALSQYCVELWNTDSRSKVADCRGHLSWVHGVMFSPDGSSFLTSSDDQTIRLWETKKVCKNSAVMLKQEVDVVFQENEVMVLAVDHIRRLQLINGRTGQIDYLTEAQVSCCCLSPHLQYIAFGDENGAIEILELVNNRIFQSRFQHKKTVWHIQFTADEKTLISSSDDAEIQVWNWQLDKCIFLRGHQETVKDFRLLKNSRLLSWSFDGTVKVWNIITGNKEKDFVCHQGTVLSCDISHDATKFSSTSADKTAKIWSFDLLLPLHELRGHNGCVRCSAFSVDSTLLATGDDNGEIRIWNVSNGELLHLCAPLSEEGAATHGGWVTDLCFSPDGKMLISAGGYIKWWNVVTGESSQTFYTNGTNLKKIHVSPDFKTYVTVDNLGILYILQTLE

[2] = biological target: T2, Heat shock factor protein 1 (Mus musculus, UniProt P38532); assay: decrease of HSF1-responsive luciferase luminescence – cell-based, NIH3T3, dose retest, confirmation (AID 2382); format: functional;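 note: NIH3T3 fibroblasts with HSF1-driven luciferase reporter stressed by proteasome inhibitor MG132; luminescence from HSF1-driven luciferase expression after 8 hours of MG132 stress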
T2 sequence (P38532 whole entry): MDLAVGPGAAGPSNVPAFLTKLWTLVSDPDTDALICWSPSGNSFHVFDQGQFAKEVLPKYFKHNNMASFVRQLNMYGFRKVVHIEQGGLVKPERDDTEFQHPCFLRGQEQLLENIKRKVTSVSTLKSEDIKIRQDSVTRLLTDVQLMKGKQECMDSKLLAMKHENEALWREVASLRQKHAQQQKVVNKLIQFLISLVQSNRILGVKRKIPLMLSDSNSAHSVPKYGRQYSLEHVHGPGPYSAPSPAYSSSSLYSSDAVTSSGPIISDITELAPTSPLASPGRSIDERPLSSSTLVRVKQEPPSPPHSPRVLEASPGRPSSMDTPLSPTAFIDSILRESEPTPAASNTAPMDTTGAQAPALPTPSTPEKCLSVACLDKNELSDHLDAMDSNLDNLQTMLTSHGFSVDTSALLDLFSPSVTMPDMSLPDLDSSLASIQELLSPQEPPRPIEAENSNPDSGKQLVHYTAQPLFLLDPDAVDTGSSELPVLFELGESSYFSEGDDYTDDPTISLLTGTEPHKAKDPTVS

[3] = system: HEK293; assay: EBV LMP1 TES2 canonical NF-kB signalling blockers – cell-based, HEK293, luciferase, cherry-pick, dose response (AID 588343); format: functional; conditions: Homo sapiens
[4] = biological target: T3, Polyadenylate-binding protein 1 (Homo sapiens, UniProt P11940); assay: MLLE binding blockers, Cy5 peptide tracer – biochemical, fluorescence polarization, Cy5-PAM2 peptide, secondary, miRNA deadenylation inhibitor project, dose response (AID 602260); format: functional; conditions: read-out: IC50_Mean
[5] = cells; format: functional
[6] = biological target: T3, Polyadenylate-binding protein 1; assay: MLLE domain peptide-binding blockers, IC50 – biochemical, fluorescence polarization, FITC-PAM2 peptide, dose response (AID 602259); format: functional; conditions: read-out: IC50_Mean
[7] = THP-1 cell cytotoxicity, dose response, cytotoxicity control for non-replicating M. tuberculosis project (AID 489025); format: functional
[8] = biological target: Latent membrane protein 1 (Human herpesvirus 4 (strain B95-8), UniProt P03230); assay: LMP1 TES1 pathway selectivity over dsRED control – imaging, HEK293T, dual-color eGFP/dsRED, cherry-picks, selectivity assay for LMP1 NF-kB inhibitor project, dose response (AID 588398); format: functional, cell-based
[9] = system: HEK293; assay: HEK293T cell viability loss, resazurin readout – resazurin fluorescence, cytotoxicity control for NF-kB activator project, SAR follow-up (AID 493251); format: functional, cell-based; conditions: Homo sapiens
[10] = system: Jurkat; assay: SAR Analysis of small molecule inhibitors of T-cell specific antigen receptor-induced NF-kB activation in a Jurkat cell line using a luminescence assay - Set 2. [Related pubchem assays (depositor defined):AID435003, AID435012, AID465]; format: functional, cell-based; conditions: Homo sapiens
[11] = system: HEK293; assay: SAR Analysis of small molecule inhibitors of T-cell specific antigen receptor-induced NF-kB activation in a HEK-293T cell line using a luminescence assay - Set 2. [Related pubchem assays (depositor defined):AID435003, AID435012, AID489026]; format: functional, cell-based; conditions: Homo sapiens
[12] = system: Jurkat; assay: SAR Analysis of small molecule inhibitors of […] specific antigen receptor-induced NF-kB activation in a Jurkat cell line using a luminescence assay - Set 3. [Related pubchem assays (depositor defined):AID435022, AID435025, AID465]; format: functional, cell-based; conditions: Homo sapiens
[13] = system: HEK293; assay: SAR Analysis of small molecule inhibitors of B-cell specific antigen receptor-induced NF-kB activation in a HEK-293T cell line using a luminescence assay - Set 2. [Related pubchem assays (depositor defined):AID435022, AID435025, AID489021]; format: functional, cell-based; conditions: Homo sapiens
[14] = biological target: T4, Neuropeptides B/W receptor type 1 (Homo sapiens, UniProt P48145); assay: human NPBW1 receptor blockade, IC50 – cell-based, fluorescence, dose response, set 5, late-stage follow-up (AID 588566); format: functional
T4 sequence (P48145 whole entry): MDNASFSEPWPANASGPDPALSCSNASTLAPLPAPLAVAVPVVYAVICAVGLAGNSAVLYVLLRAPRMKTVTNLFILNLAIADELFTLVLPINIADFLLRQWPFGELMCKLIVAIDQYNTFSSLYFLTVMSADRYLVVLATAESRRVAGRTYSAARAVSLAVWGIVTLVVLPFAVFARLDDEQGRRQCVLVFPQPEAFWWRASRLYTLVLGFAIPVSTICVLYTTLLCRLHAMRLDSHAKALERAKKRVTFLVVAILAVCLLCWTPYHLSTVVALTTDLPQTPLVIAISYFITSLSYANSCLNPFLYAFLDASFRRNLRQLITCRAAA

[15] = biological target: Melanin-concentrating hormone receptor 1 (Homo sapiens, UniProt Q99705); assay: Late-stage fluorescence-based counterscreen for antagonists of the G-protein coupled receptor 7 (GPR7): cell-based dose response assay to identify antagonists of the melanin-concentrating hormone receptor 1 (MCHR1) Set 5.; format: functional
Sequence of Melanin-concentrating hormone receptor 1 (Q99705 whole entry): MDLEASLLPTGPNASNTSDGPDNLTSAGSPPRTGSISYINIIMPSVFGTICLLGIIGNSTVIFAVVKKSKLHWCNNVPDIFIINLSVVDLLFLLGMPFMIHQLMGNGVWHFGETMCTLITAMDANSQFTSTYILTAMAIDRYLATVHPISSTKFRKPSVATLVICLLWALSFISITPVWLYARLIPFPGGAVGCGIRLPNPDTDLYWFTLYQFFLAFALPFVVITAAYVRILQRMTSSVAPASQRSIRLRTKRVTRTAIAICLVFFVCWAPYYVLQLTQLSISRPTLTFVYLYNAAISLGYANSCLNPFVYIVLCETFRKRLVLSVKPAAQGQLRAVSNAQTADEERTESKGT

T3 sequence (P11940 whole entry): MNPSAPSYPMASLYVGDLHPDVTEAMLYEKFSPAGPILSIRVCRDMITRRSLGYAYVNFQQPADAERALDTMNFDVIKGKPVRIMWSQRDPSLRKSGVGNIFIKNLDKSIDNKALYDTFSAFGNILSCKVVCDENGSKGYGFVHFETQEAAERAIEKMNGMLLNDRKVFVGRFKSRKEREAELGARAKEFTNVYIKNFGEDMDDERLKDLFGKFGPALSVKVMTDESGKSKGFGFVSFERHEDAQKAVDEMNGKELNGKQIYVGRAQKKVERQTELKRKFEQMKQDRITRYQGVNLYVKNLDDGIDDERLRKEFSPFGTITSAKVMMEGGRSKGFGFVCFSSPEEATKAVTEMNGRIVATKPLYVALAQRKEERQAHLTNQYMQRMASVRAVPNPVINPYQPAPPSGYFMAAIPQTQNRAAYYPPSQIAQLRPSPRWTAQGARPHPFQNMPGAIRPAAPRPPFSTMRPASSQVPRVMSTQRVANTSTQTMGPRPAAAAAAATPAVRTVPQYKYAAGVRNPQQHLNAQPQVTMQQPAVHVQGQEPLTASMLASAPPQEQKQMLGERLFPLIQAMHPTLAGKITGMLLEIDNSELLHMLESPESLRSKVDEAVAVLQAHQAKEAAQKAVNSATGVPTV
Sequence of Latent membrane protein 1 (P03230 whole entry): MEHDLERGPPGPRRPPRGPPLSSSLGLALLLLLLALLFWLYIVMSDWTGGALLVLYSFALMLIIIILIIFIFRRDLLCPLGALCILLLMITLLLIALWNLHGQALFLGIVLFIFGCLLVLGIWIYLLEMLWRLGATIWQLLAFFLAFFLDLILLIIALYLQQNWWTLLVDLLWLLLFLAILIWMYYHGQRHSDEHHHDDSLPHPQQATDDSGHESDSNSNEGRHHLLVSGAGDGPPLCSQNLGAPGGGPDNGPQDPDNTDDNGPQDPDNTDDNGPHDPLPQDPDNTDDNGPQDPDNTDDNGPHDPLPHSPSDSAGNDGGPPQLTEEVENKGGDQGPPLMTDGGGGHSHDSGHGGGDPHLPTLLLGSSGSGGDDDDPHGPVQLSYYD

With Cc1c(NC(=O)C2CC(c3ccc(F)cc3)=NO2)c(=O)n(-c2ccccc2)n1C (stereo unspecified) the EC50 [1] was > 100 µM (inactive) and the EC50 [2] was > 195 µM (not active).

For CN1C(=O)N(C)c2ccc(C=O)c3cccc1c23, the AC50 [3] was 6.36 µM (active), the IC50 [4] was 37.9 µM (inactive) and the IC50 [5] was 31.1 µM (active). For the same compound, the IC50 [6] was 58.8 µM (inactive), the CC50 [7] was 24.6 µM (active) and the AC50 [8] was 0.774 µM (active).

With COc1ccc(C(=O)Nc2ccc(NC(=O)c3cc4ccccc4o3)cc2)cc1[N+](=O)[O-] the IC50 [9] was > 80 µM (inactive), the IC50 [10] was 76.7 µM (inactive) and the IC50 [11] was > 80 µM (inactive).

In the case of CCOc1ccc(-c2nc(CSCC(=O)NCCc3ccc(Cl)cc3)c(C)o2)cc1, the IC50 [12] is reported as 63.8 µM (inactive), the IC50 [13] is reported as > 80 µM (inactive) and the IC50 [9] is reported as > 80 µM (inactive).

With CCCNC(=O)CSCc1nc(-c2ccc(OCC)cc2)oc1C the IC50 [12] was > 80 µM (inactive), the IC50 [13] was 74.7 µM (inactive) and the IC50 [9] was > 80 µM (inactive).

In the case of Cc1ccc(C(C#N)c2c(Cl)cnn(Cc3cccc4ccccc34)c2=O)cc1 (stereo unspecified), the IC50 [14] is reported as 0.381 µM (active) and the IC50 [15] is reported as 1.24 µM (active).

In the case of CCOc1ccc(Oc2c(N3CCCC3)c(Br)nn(Cc3cccc4ccccc34)c2=O)cc1, the IC50 [14] is reported as > 20 µM (inactive) and the IC50 [15] is reported as > 20 µM (inactive).
